Source: ChEMBL document CHEMBL1151757, “Synthesis, radiosynthesis, and biological evaluation of fluorine-18-labeled 2beta-carbo(fluoroalkoxy)-3beta-(3'-((Z)-2-haloethenyl)phenyl)nortropanes: candidate radioligands for in vivo imaging of the serotonin transporter with positron emission tomography” (J Med Chem, 2008)

What was measured:
[1] = Ratio of drug uptake in pons to cerebellum in anesthetized cynomolgus monkey after 95 mins postinjection; format: ADME, organism-based, Macaca fascicularis; conditions: in vivo
[2] = Ratio of drug uptake in pons to cerebellum in anesthetized cynomolgus monkey after 195 mins postinjection; format: ADME, organism-based, Macaca fascicularis; conditions: in vivo, 3.25 h
[3] = Ratio of drug uptake in medulla to cerebellum in anesthetized cynomolgus monkey after 165 mins postinjection; format: ADME, organism-based, Macaca fascicularis; conditions: in vivo, 2.75 h
[4] = Ratio of drug uptake in medulla to cerebellum in anesthetized cynomolgus monkey after 185 mins postinjection; format: ADME, organism-based, Macaca fascicularis; conditions: in vivo
[5] = Drug uptake in anesthetized cynomolgus monkey brain occipital lobe after 22.5 mins postinjection; format: ADME, organism-based, Macaca fascicularis; conditions: in vivo, 0.375 h
[6] = Drug uptake in anesthetized cynomolgus monkey brain occipital lobe after 27.5 mins postinjection; format: ADME, organism-based, Macaca fascicularis; conditions: in vivo
[7] = Drug uptake in anesthetized cynomolgus monkey brain occipital lobe after 35 mins postinjection; format: ADME, organism-based, Macaca fascicularis; conditions: in vivo
[8] = Drug uptake in anesthetized cynomolgus monkey brain occipital lobe after 95 mins postinjection; format: ADME, organism-based, Macaca fascicularis; conditions: in vivo
[9] = Drug uptake in anesthetized cynomolgus monkey brain occipital lobe after 175 mins postinjection; format: ADME, organism-based, Macaca fascicularis; conditions: in vivo
[10] = Drug uptake in anesthetized cynomolgus monkey brain frontal lobe after 18.5 mins postinjection; format: ADME, organism-based, Macaca fascicularis; conditions: in vivo
[11] = Drug uptake in anesthetized cynomolgus monkey brain frontal lobe after 95 mins postinjection; format: ADME, organism-based, Macaca fascicularis; conditions: in vivo
[12] = Drug uptake in anesthetized cynomolgus monkey brain frontal lobe after 225 mins postinjection; format: ADME, organism-based, Macaca fascicularis; conditions: in vivo, 3.75 h
[13] = Ratio of drug uptake in midbrain to cerebellum in anesthetized cynomolgus monkey after 225 mins postinjection; format: ADME, organism-based, Macaca fascicularis; conditions: in vivo, 3.75 h
Putamen [14] = assay: Drug uptake in anesthetized cynomolgus monkey brain putamen after 115 mins postinjection; format: ADME, organism-based, Macaca fascicularis; design: unit not given here; conditions: in vivo
Putamen [15] = assay: Drug uptake in anesthetized cynomolgus monkey brain putamen after 165 mins postinjection; format: ADME, organism-based, Macaca fascicularis; conditions: in vivo, 2.75 h
Putamen [16] = assay: Drug uptake in anesthetized cynomolgus monkey brain putamen after 235 mins postinjection; format: ADME, organism-based, Macaca fascicularis; conditions: in vivo
[17] = Ratio of drug uptake in occipital lobe to cerebellum in anesthetized cynomolgus monkey after 185 mins postinjection; format: ADME, organism-based, Macaca fascicularis; conditions: in vivo
[18] = Ratio of drug uptake in occipital lobe to cerebellum in anesthetized cynomolgus monkey after 195 mins postinjection; format: ADME, organism-based, Macaca fascicularis; conditions: in vivo, 3.25 h
[19] = Ratio of drug uptake in frontal lobe to cerebellum in anesthetized cynomolgus monkey after 135 mins postinjection; format: ADME, organism-based, Macaca fascicularis; conditions: in vivo, 2.25 h
Midbrain [20] = assay: Drug uptake in anesthetized cynomolgus monkey brain midbrain after 145 mins postinjection; format: ADME, organism-based, Macaca fascicularis; conditions: in vivo
Midbrain [21] = assay: Drug uptake in anesthetized cynomolgus monkey brain midbrain after 175 mins postinjection; format: ADME, organism-based, Macaca fascicularis; conditions: in vivo
Midbrain [22] = assay: Drug uptake in anesthetized cynomolgus monkey brain midbrain after 215 mins postinjection; format: ADME, organism-based, Macaca fascicularis; conditions: in vivo
Pons [23] = assay: Drug uptake in anesthetized cynomolgus monkey brain pons after 1.5 mins postinjection; format: ADME, organism-based, Macaca fascicularis; conditions: in vivo, 0.025 h
Pons [24] = assay: Drug uptake in anesthetized cynomolgus monkey brain pons after 6.5 mins postinjection; format: ADME, organism-based, Macaca fascicularis; conditions: in vivo
Pons [25] = assay: Drug uptake in anesthetized cynomolgus monkey brain pons after 45 mins postinjection; format: ADME, organism-based, Macaca fascicularis; conditions: in vivo, 0.75 h
Pons [26] = assay: Drug uptake in anesthetized cynomolgus monkey brain pons after 85 mins postinjection; format: ADME, organism-based, Macaca fascicularis; conditions: in vivo
Midbrain [27] = assay: Drug uptake in anesthetized cynomolgus monkey brain midbrain after 195 mins postinjection; format: ADME, organism-based, Macaca fascicularis; conditions: in vivo, 3.25 h
Pons [28] = assay: Drug uptake in anesthetized cynomolgus monkey brain pons after 195 mins postinjection; format: ADME, organism-based, Macaca fascicularis; conditions: in vivo, 3.25 h
[29] = Ratio of drug uptake in frontal lobe to cerebellum in anesthetized cynomolgus monkey after 195 mins postinjection; format: ADME, organism-based, Macaca fascicularis; conditions: in vivo, 3.25 h
Caudate [30] = assay: Drug uptake in anesthetized cynomolgus monkey brain caudate after 195 mins postinjection; format: ADME, organism-based, Macaca fascicularis, Caudate nucleus; conditions: in vivo, 3.25 h
Pons [31] = assay: Drug uptake in anesthetized cynomolgus monkey brain pons after 125 mins postinjection; format: ADME, organism-based, Macaca fascicularis; conditions: in vivo
Pons [32] = assay: Drug uptake in anesthetized cynomolgus monkey brain pons after 165 mins postinjection; format: ADME, organism-based, Macaca fascicularis; conditions: in vivo, 2.75 h
Medulla [33] = assay: Drug uptake in anesthetized cynomolgus monkey brain medulla after 6.5 mins postinjection; format: ADME, organism-based, Macaca fascicularis; conditions: in vivo
Medulla [34] = assay: Drug uptake in anesthetized cynomolgus monkey brain medulla after 12.5 mins postinjection; format: ADME, organism-based, Macaca fascicularis; conditions: in vivo
Medulla [35] = assay: Drug uptake in anesthetized cynomolgus monkey brain medulla after 15.5 mins postinjection; format: ADME, organism-based, Macaca fascicularis; conditions: in vivo
Medulla [36] = assay: Drug uptake in anesthetized cynomolgus monkey brain medulla after 22.5 mins postinjection; format: ADME, organism-based, Macaca fascicularis; conditions: in vivo, 0.375 h
Medulla [37] = assay: Drug uptake in anesthetized cynomolgus monkey brain medulla after 75 mins postinjection; format: ADME, organism-based, Macaca fascicularis; conditions: in vivo, 1.25 h
[38] = Ratio of drug uptake in putamen to cerebellum in anesthetized cynomolgus monkey after 45 mins postinjection; format: ADME, organism-based, Macaca fascicularis; conditions: in vivo, 0.75 h
Medulla [39] = assay: Drug uptake in anesthetized cynomolgus monkey brain medulla after 225 mins postinjection; format: ADME, organism-based, Macaca fascicularis; conditions: in vivo, 3.75 h
[40] = Drug uptake in anesthetized cynomolgus monkey brain cerebellum after 0.5 mins postinjection; format: ADME, organism-based, Macaca fascicularis; conditions: in vivo
[41] = Drug uptake in anesthetized cynomolgus monkey brain cerebellum after 2.5 mins postinjection; format: ADME, organism-based, Macaca fascicularis; conditions: in vivo
[42] = Drug uptake in anesthetized cynomolgus monkey brain cerebellum after 12.5 mins postinjection; format: ADME, organism-based, Macaca fascicularis; conditions: in vivo
[43] = Drug uptake in anesthetized cynomolgus monkey brain cerebellum after 18.5 mins postinjection; format: ADME, organism-based, Macaca fascicularis; conditions: in vivo
[44] = Drug uptake in anesthetized cynomolgus monkey brain cerebellum after 35 mins postinjection; format: ADME, organism-based, Macaca fascicularis; conditions: in vivo
[45] = Drug uptake in anesthetized cynomolgus monkey brain cerebellum after 165 mins postinjection; format: ADME, organism-based, Macaca fascicularis; conditions: in vivo, 2.75 h
[46] = Ratio of drug uptake in putamen to cerebellum in anesthetized cynomolgus monkey after 215 mins postinjection; format: ADME, organism-based, Macaca fascicularis; conditions: in vivo
[47] = Ratio of drug uptake in thalamus to cerebellum in anesthetized cynomolgus monkey after 27.5 mins postinjection; format: ADME, organism-based, Macaca fascicularis; conditions: in vivo
[48] = Ratio of drug uptake in thalamus to cerebellum in anesthetized cynomolgus monkey after 115 mins postinjection; format: ADME, organism-based, Macaca fascicularis; conditions: in vivo
[49] = Ratio of drug uptake in thalamus to cerebellum in anesthetized cynomolgus monkey after 195 mins postinjection; format: ADME, organism-based, Macaca fascicularis; conditions: in vivo, 3.25 h
Caudate [50] = assay: Drug uptake in anesthetized cynomolgus monkey brain caudate after 4.5 mins postinjection; format: ADME, organism-based, Macaca fascicularis, Caudate nucleus; conditions: in vivo, 0.075 h
Caudate [51] = assay: Drug uptake in anesthetized cynomolgus monkey brain caudate after 15.5 mins postinjection; format: ADME, organism-based, Macaca fascicularis, Caudate nucleus; conditions: in vivo
Caudate [52] = assay: Drug uptake in anesthetized cynomolgus monkey brain caudate after 45 mins postinjection; format: ADME, organism-based, Macaca fascicularis, Caudate nucleus; conditions: in vivo, 0.75 h
Caudate [53] = assay: Drug uptake in anesthetized cynomolgus monkey brain caudate after 165 mins postinjection; format: ADME, organism-based, Macaca fascicularis, Caudate nucleus; conditions: in vivo, 2.75 h
Caudate [54] = assay: Drug uptake in anesthetized cynomolgus monkey brain caudate after 215 mins postinjection; format: ADME, organism-based, Macaca fascicularis, Caudate nucleus; conditions: in vivo
Caudate [55] = assay: Drug uptake in anesthetized cynomolgus monkey brain caudate after 225 mins postinjection; format: ADME, organism-based, Macaca fascicularis, Caudate nucleus; conditions: in vivo, 3.75 h
Putamen [56] = assay: Drug uptake in anesthetized cynomolgus monkey brain putamen after 3.5 mins postinjection; format: ADME, organism-based, Macaca fascicularis; conditions: in vivo
Thalamus [57] = assay: Drug uptake in anesthetized cynomolgus monkey brain thalamus after 3.5 mins postinjection; format: ADME, organism-based, Macaca fascicularis; design: unit not given here; conditions: in vivo
Thalamus [58] = assay: Drug uptake in anesthetized cynomolgus monkey brain thalamus after 12.5 mins postinjection; format: ADME, organism-based, Macaca fascicularis; design: unit not given here; conditions: in vivo
Thalamus [59] = assay: Drug uptake in anesthetized cynomolgus monkey brain thalamus after 15.5 mins postinjection; format: ADME, organism-based, Macaca fascicularis; design: unit not given here; conditions: in vivo
Putamen [60] = assay: Drug uptake in anesthetized cynomolgus monkey brain putamen after 9.5 mins postinjection; format: ADME, organism-based, Macaca fascicularis; design: unit not given here; conditions: in vivo
Thalamus [61] = assay: Drug uptake in anesthetized cynomolgus monkey brain thalamus after 75 mins postinjection; format: ADME, organism-based, Macaca fascicularis; design: unit not given here; conditions: in vivo, 1.25 h
Thalamus [62] = assay: Drug uptake in anesthetized cynomolgus monkey brain thalamus after 105 mins postinjection; format: ADME, organism-based, Macaca fascicularis; design: unit not given here; conditions: in vivo, 1.75 h
Thalamus [63] = assay: Drug uptake in anesthetized cynomolgus monkey brain thalamus after 165 mins postinjection; format: ADME, organism-based, Macaca fascicularis; design: unit not given here; conditions: in vivo, 2.75 h
Thalamus [64] = assay: Drug uptake in anesthetized cynomolgus monkey brain thalamus after 225 mins postinjection; format: ADME, organism-based, Macaca fascicularis; design: unit not given here; conditions: in vivo, 3.75 h
Midbrain [65] = assay: Drug uptake in anesthetized cynomolgus monkey brain midbrain after 2.5 mins postinjection; format: ADME, organism-based, Macaca fascicularis; design: unit not given here; conditions: in vivo
Midbrain [66] = assay: Drug uptake in anesthetized cynomolgus monkey brain midbrain after 22.5 mins postinjection; format: ADME, organism-based, Macaca fascicularis; design: unit not given here; conditions: in vivo, 0.375 h
Midbrain [67] = assay: Drug uptake in anesthetized cynomolgus monkey brain midbrain after 65 mins postinjection; format: ADME, organism-based, Macaca fascicularis; design: unit not given here; conditions: in vivo
[68] = Ratio of drug uptake in midbrain to cerebellum in anesthetized cynomolgus monkey after 27.5 mins postinjection; format: ADME, organism-based, Macaca fascicularis; conditions: in vivo

O=C(OCC[18F])C1C2CCC(CC1c1cccc(/C=C\Br)c1)N2 (stereo not drawn)
Ratio [1]: 1.4
Ratio [2]: 2
Ratio [3]: 1.8
Ratio [4]: 1.9
Drug uptake [5]: 3.14
Drug uptake [6]: 3.28
Drug uptake [7]: 3.43
Drug uptake [8]: 3.16
Drug uptake [9]: 2.42
Drug uptake [10]: 2.39
Drug uptake [11]: 2.75
Drug uptake [12]: 1.88
Ratio [13]: 2.3
Drug uptake (Putamen [14]): 4.68
Drug uptake (Putamen [15]): 3.92
Drug uptake (Putamen [16]): 2.98
Ratio [17]: 1.3
Ratio [18]: 1.1
Ratio [19]: 1.1
Drug uptake (Midbrain [20]): 4.65
Drug uptake (Midbrain [21]): 4.13
Drug uptake (Midbrain [22]): 3.76
Drug uptake (Pons [23]): 0.09
Drug uptake (Pons [24]): 2.79
Drug uptake (Pons [25]): 4.45
Drug uptake (Pons [26]): 4.29
Drug uptake (Midbrain [27]): 3.91
Drug uptake (Pons [28]): 3.63
Ratio [29]: 1.2
Drug uptake (Caudate [30]): 3.08
Drug uptake (Pons [31]): 4.27
Drug uptake (Pons [32]): 3.9
Drug uptake (Medulla [33]): 3.64
Drug uptake (Medulla [34]): 4.2
Drug uptake (Medulla [35]): 4.15
Drug uptake (Medulla [36]): 4.7
Drug uptake (Medulla [37]): 4.73
Ratio [38]: 1.3
Drug uptake (Medulla [39]): 2.67
Drug uptake [40]: 0
Drug uptake [41]: 0.42
Drug uptake [42]: 3.41
Drug uptake [43]: 3.59
Drug uptake [44]: 3.84
Drug uptake [45]: 2.18
Ratio [46]: 1.8
Ratio [47]: 1
Ratio [48]: 1.5
Ratio [49]: 1.8
Drug uptake (Caudate [50]): 1.12
Drug uptake (Caudate [51]): 2.89
Drug uptake (Caudate [52]): 3.83
Drug uptake (Caudate [53]): 3.44
Drug uptake (Caudate [54]): 2.85
Drug uptake (Caudate [55]): 2.93
Drug uptake (Putamen [56]): 1
Drug uptake (Thalamus [57]): 0.67
Drug uptake (Thalamus [58]): 3
Drug uptake (Thalamus [59]): 3.29
Drug uptake (Putamen [60]): 3.59
Drug uptake (Thalamus [61]): 4.29
Drug uptake (Thalamus [62]): 4.23
Drug uptake (Thalamus [63]): 3.64
Drug uptake (Thalamus [64]): 2.95
Drug uptake (Midbrain [65]): 0.55
Drug uptake (Midbrain [66]): 4.28
Drug uptake (Midbrain [67]): 5
Ratio [68]: 1.2
